Measurements taken from US8518924B2, “Agent for inhibiting visceral fat accumulation” (Morinaga Milk Industry Co., Ltd., priority 2005, dated 2013).

System: ZDF (Zucker Diabetic Fatty) rats
Test: Inhibitory effect on visceral fat accumulation (mesenteric fat weight) in high-fat-diet-fed ZDF rats
Assay type: in vivo, rat
Details: for Effect of inhibiting visceral fat accumulation (in words): Tukey-Kramer's test vs negative sample; for Mesenteric fat weight as percentage of that of the group administered with the negative sample: oral once a day for 44 days, 45th day; for Mesenteric fat weight: male ZDF rats on high fat diet, oral 1 ml per 400 g body weight once a day for 44 days, measured at 45th day
Description: In Example 1, an inhibitory effect of a compound having a lophenol skeleton on visceral fat accumulation was investigated by using ZDF (Zucker Diabetic Fatty) rats that are model animals for obese diabetes.
Compound 3 (4-methylcholest-7-en-3-ol), Compound 4 (4-methylergost-7-en-3-ol), and Compound 5 (4-methylstigmast-7-en-3-ol) which were produced in Preparation Example 1 were used as Test Samples 1, 2, and 3, respectively. Each of the test samples was dissolved in DMSO, and a concentration of each of the compounds in each of the test samples was adjusted with distilled water to be 10 μg/ml, thereby preparing Test Samples 1-1, 2-1, and 3-1. Test Samples 1-2, 2-2, and 3-2 each having the concentration of a compound of 1 μg/ml were prepared.
At 45th day from initiation of the administration, mesenteric fat weights were measured as the visceral fat.

Compound | Effect of inhibiting visceral fat accumulation (in words) (1 μg/ml) | Mesenteric fat weight as percentage of that of the group administered with the negative sample (10 μg/ml solution) [%] | Effect of inhibiting visceral fat accumulation (in words) (10 μg/ml) | Mesenteric fat weight (1 μg/ml solution) [g] | Mesenteric fat weight (10 μg/ml solution, listed as Test Sample 3-1) [g] | Mesenteric fat weight (10 μg/ml solution, listed as Test Sample 2-1) [g] | Mesenteric fat weight (10 μg/ml solution, listed as Test Sample 1-1) [g]
CCC(CCC(C)C1CCC2C3=CCC4C(C)C(O)CCC4(C)C3CCC21C)C(C)C (stereo not drawn) [Compound 5, 4-methylstigmast-7-en-3-ol] | tendency to reduce the visceral fat, but no significant effect was observed | 48.7 | significant effects of inhibiting visceral fat accumulation | 6.10 ± 1.67 | 3.36 ± 1.67 |  | 
CC(C)C(C)CCC(C)C1CCC2C3=CCC4C(C)C(O)CCC4(C)C3CCC21C (stereo not drawn) [Compound 4, 4-methylergost-7-en-3-ol] | tendency to reduce the visceral fat, but no significant effect was observed | 54.9 | significant effects of inhibiting visceral fat accumulation | 5.74 ± 1.57 |  | 3.78 ± 0.26 | 
CC(C)CCCC(C)C1CCC2C3=CCC4C(C)C(O)CCC4(C)C3CCC21C (stereo not drawn) [Compound 3, 4-methylcholest-7-en-3-ol] | tendency to reduce the visceral fat, but no significant effect was observed | 65.0 | significant effects of inhibiting visceral fat accumulation | 5.63 ± 1.25 |  |  | 4.48 ± 1.34
